Laboratory results as given in ChEMBL document CHEMBL6153097, “Design, synthesis, and biological evaluation of Flavokavain B derivatives as potent TRF2 inhibitors for the treatment of Osteosarcoma” (Eur J Med Chem, 2025).
Calls of active or inactive are those of the source. The calls are words filed in the database; no cut-off is given here.

What was measured:
[1] = Inhibition of TRF2 expression in human MG-63 cells at 2 uM measured after 48 hrs by Western blot analysis relative to control; type: functional
MG-63 [2] = test: Antiproliferative activity against human MG-63 cells assessed as reduction in cell viability incubated for 48 hrs by MTT assay; type: functional, cell-based; settings: MG-63, 48 h
[3] = Cytotoxicity against […] MLO-Y4 cells assessed as cell viability incubated for 48 hrs by MTT assay; type: toxicity, cell-based; settings: mouse
U2OS [4] = test: Induction of apoptosis in human U2OS cells assessed as reduction in TRF2 foci at 2 to 4 microM by Immunofluorescence based FISH assay; type: functional, cell-based; settings: dose 2-4 µM
U2OS [5] = test: Induction of apoptosis in human U2OS cells assessed as necrotic apoptotic cells at 2 uM measured after 48 hrs annexin-V and propidium iodide staining based flow cytometry analysis (reference value: 2.46%); type: functional
U2OS [6] = test: Induction of apoptosis in human U2OS cells assessed as viable cells at 4 uM measured after 48 hrs annexin-V and propidium iodide staining based flow cytometry analysis (reference value: 89.2%); type: functional; settings: read-out: Activity
U2OS [7] = test: Induction of apoptosis in human U2OS cells assessed as late apoptotic cells at 4 uM measured after 48 hrs annexin-V and propidium iodide staining based flow cytometry analysis (reference value: 5.94%); type: functional
MG-63 [8] = test: Induction of apoptosis in human MG-63 cells assessed as viable cells at 2 uM measured after 48 hrs annexin-V and propidium iodide staining based flow cytometry analysis (reference value: 90.7%); type: functional; settings: read-out: Activity
MG-63 [9] = test: Induction of apoptosis in human MG-63 cells assessed as viable cells at 4 uM measured after 48 hrs annexin-V and propidium iodide staining based flow cytometry analysis (reference value: 90.7%); type: functional; settings: read-out: Activity
MG-63 [10] = test: Induction of apoptosis in human MG-63 cells assessed as early apoptotic cells at 4 uM measured after 48 hrs annexin-V and propidium iodide staining based flow cytometry analysis (reference value: 0.66%); type: functional
MG-63 [11] = test: Induction of apoptosis in human MG-63 cells assessed as necrotic cells at 4 uM measured after 48 hrs annexin-V and propidium iodide staining based flow cytometry analysis (reference value: 0.52%); type: functional
MG-63 [12] = test: Antiproliferative activity against human MG-63 cells assessed as reduction in cell viability at 2 to 4 uM measured for 8 days by PDL assay; type: functional, cell-based; settings: dose 2-4 µM, time 8.0 day
MG-63 [13] = test: Induction of apoptosis in human MG-63 cells assessed as reduction in colocalization of TRF2 with telomere at 2 to 4 microM by Immunofluorescence based FISH assay; type: functional, cell-based; settings: dose 2-4 µM
U2OS [14] = test: Induction of DNA damage response in human U2OS cells assessed as reduction in TRF2 expression by measuring accumulation of telomere-free ends at 2 to 4 uM by FITC/DAPI based Quantitative FISH (Q-FISH) assay; type: functional, cell-based; settings: dose 2-4 µM
MG-63 [15] = test: Induction of DNA damage response in human MG-63 cells assessed as reduction in TRF2 expression by measuring accumulation of telomere-free ends at 2 to 4 uM by FITC/DAPI based Quantitative FISH (Q-FISH) assay; type: functional, cell-based; settings: dose 2-4 µM
MG-63 [16] = test: Induction of DNA damage in human MG-63 cells assessed as increase in 53BP1 foci by Immunofluorescence based FISH assay; type: functional, cell-based; settings: dose 2-4 µM
U2OS [17] = test: Induction of DNA damage response in human U2OS cells assessed as telomere dysfunction by measuring telomere length shortening at 2 to 4 uM by Immunofluorescence based FISH assay; type: functional, cell-based; settings: dose 2-4 µM
U2OS [18] = test: Induction of DNA damage in human U2OS cells assessed as increase in telomere dysfunction-foci at 4 uM by Immunofluorescence based FISH assay; type: functional, cell-based
MG-63 [19] = test: Inhibition of TRF2 expression in human MG-63 cells by co-immunoprecipitation based Western blot analysis; type: functional, cell-based
[20] = Acute toxicity in mouse assessed as effect on body weight at 30 to 90 mg/kg, po single dose measured for 7 days; type: organism-based; settings: in vivo, 168 h, dose 30-90 mg/kg, time 7 day
[21] = Acute toxicity in mouse assessed as change in weight of heart at 30 to 90 mg/kg, po single dose measured for 7 days; type: organism-based; settings: in vivo, 168 h, dose 30-90 mg/kg, time 7 day
[22] = Acute toxicity in mouse assessed as change in weight of spleen at 30 to 90 mg/kg, po single dose measured for 7 days; type: organism-based; settings: in vivo, 168 h, dose 30-90 mg/kg, time 7 day
[23] = Acute toxicity in mouse assessed as change in weight of lung at 30 to 90 mg/kg, po single dose measured for 7 days; type: organism-based; settings: in vivo, 168 h, dose 30-90 mg/kg, time 7 day
[24] = Acute toxicity in mouse assessed as change in weight of kidney at 30 to 90 mg/kg, po single dose measured for 7 days; type: organism-based; settings: in vivo, 168 h, dose 30-90 mg/kg, time 7 day
MG-63 [25] = test: Antitumor activity against human MG-63 cells xenografted in female BALB/c mouse model assessed as tumour growth suppression at 10 to 60 mg/kg, via oral gavage administered once a day for 3 weeks; type: functional, organism-based; settings: dose 10-60 mg/kg
[26] = Toxicity in female BALB/c mouse model xenografted with human MG-63 cells assessed as effect on body weight at 10 to 60 mg/kg, via oral gavage administered once a day for 3 weeks; type: organism-based; settings: in vivo, 504 h, dose 10-60 mg/kg
MG-63 [27] = test: Antitumor activity against human MG-63 cells xenografted in female BALB/c mouse model assessed as downregulation of TRF2 in tumor treated via oral gavage administered once a day for 3 weeks by IHC analysis; type: functional, cell-based; settings: dose 10-60 mg/kg
MG-63 [28] = test: Antitumor activity against human MG-63 cells xenografted in female BALB/c mouse model assessed as upregulation of gamma-H2AX in tumor treated via oral gavage administered once a day for 3 weeks by IHC analysis; type: functional, cell-based; settings: dose 10-60 mg/kg

COc1cc(OC)c(C(=O)/C=C/c2cccc(Br)c2)c(OC)c1
inhibition at 2 µM [1]: 54% | IC50 (MG-63 [2]): 1.52 µM | IC50 at 48 h [3]: 12.3 µM | Activity (U2OS [4]): Active | Activity (U2OS [5]): 1.18% | viability at 4 µM (U2OS [6]): 52.2% | Activity (U2OS [7]): 16.3% | viability at 2 µM (MG-63 [8]): 47.9% | viability at 4 µM (MG-63 [9]): 17.5% | Activity (MG-63 [10]): 15.2% | Activity (MG-63 [11]): 5.47% | Activity (MG-63 [12]): Active | Activity (MG-63 [13]): Active | Activity (U2OS [14]): Active | Activity (MG-63 [15]): Active | Activity (MG-63 [16]): Dose-dependent-effect | Activity (U2OS [17]): Dose-dependent-effect | Activity (U2OS [18]): Active | inhibition (MG-63 [19]): Active | Activity [20]: Non-toxic | Activity [21]: Non-toxic | Activity [22]: Non-toxic | Activity [23]: Non-toxic | Activity [24]: Non-toxic | Activity (MG-63 [25]): Active; Stronger Than Control Drugs | Activity [26]: Non-toxic | Activity (MG-63 [27]): Dose-dependent-effect | Activity (MG-63 [28]): Dose-dependent-effect; Compound Showed Significantly Stronger Effect Than Ar And Fkb04
